# Patent US20030229044A1, “Use of statins and other immunomodulatory agents in the treatment of autoimmune disease” (priority 2002, published 2003)
# Entries after “also recorded” stand apart in the source; their conditions may differ.
# Columns and labels:
# [1] = tested on: EAE in Lewis rats; assay: MBPp85-99-induced EAE in Lewis rats, ordered peptides; type: in vivo, rat; conditions: single intraperitoneal dose of 0.5 mg peptide on day of mean disease onset
# Protocol: FIG. 8 is a graph depicting the prevention of EAE in rats treated with ordered peptides. […] Animals were injected with an emulsion of 0.1 mg of MBPp85-99 in complete Freund's adjuvant for EAE induction. Ten days later, when the clinical manifestations of disease became apparent, a single intra peritoneal dose of peptide {SEQ ID NO:4} […] (squares), {SEQ ID NO:5} […] (triangles), or PBS (circles) was administered. Results are expressed as mean disease score of groups of six animals.
# Animals. Female Lewis rats (6-8 weeks old), were purchased from Harlan Sprague Dawley (Indianapolis, Ind.)
# Peptides. For immunization and disease reversal, peptides were synthesized on a peptide synthesizer (model 9050: MilliGen, Burlington, Mass.) by standard 9-fuorenylmethoxycarbonyl chemistry. Peptides were purified by HPLC. Structure was confirmed by amino acid analysis and mass spectroscopy. Peptides used for the experiments were: {SEQ ID NO:11} […] (MBPp85 99), {SEQ ID NO:4} […], {SEQ ID NO:5} […].
# EAE induction. […] Rats were injected subcutaneously with 0.1 mi of the peptide emulsion.
# EAE treatment. Rats previously immunized with MBPp85-99 for EAE induction were scored from day eight after peptide injection. On the day of mean disease onset, animals were injected intraperitoneally with a solution of 0.5 mg of peptide in PBS (one dose of 0.25 ml).
# [2] = tested on: NOD mice; conditions: as proteins, under tolerizing conditions; cited from earlier work
# [3] = tested on: microglia and astrocytes; conditions: cited from earlier work
# [4] = tested on: MOG p35-55-induced EAE in C57BL/6 mice; assay: MOG p35-55-induced chronic EAE in C57BL/6 mice; type: in vivo, mouse
# Description: (§1) Animals. Female SJL/J, B10.PL and C57BL/6 mice (8 to 12-week-old) were purchased from the Jackson Laboratory (Bar Harbor, Me.). MBP Ac 1-11 transgenic (tg) TCR mice were backcrossed with B10.PL mice to obtain susceptibility to EAE. All animal protocols were approved by the Division of comparative Medicine at Stanford and in accordance with the National Institutes of Health guidelines.
# (§2) Peptides. Peptides were synthesized on a peptide synthesizer (model 9050; MilliGen, Burlington, Mass.) by standard 9-fluorenylmethoxycarbonyl chemistry. Peptides were purified by HPLC. Structures were confirmed by amino acid analysis and mass spectroscopy.
# (§3) EAE Induction. Relapsing remitting EAE was induced in SJL/J mice with 100 μg of PLP139-151 peptide, chronic progressive EAE was induced either in C57BL/6 or MBP Ac1-11 TCR Tg mice with 100 μg of MOG35-55 peptide or 100 μg of MBP Ac1-11 peptide, respectively. All peptides were dissolved in PBS at a concentration of 2 mg/ml and emulsified with an equal volume of CFA, which consists of incomplete Freund's adjuvant supplemented with 4 mg/ml heat-killed mycobacterium tuberculosis H37Ra (Difco Laboratories, Detroit, Mich.). […] Mice were clinically scored as follows: 0, no paralysis; 1, tail weakness or paralysis; 2, hindlimb weakness or paralysis; 3, hindlimb paralysis and forelimb weakness; 4, hindlimb and forelimb paralysis; and 5, moribund or death. […]
# [5] = tested on: PLP p139-151-induced EAE in SJL/J mice; assay: PLP p139-151-induced chronic relapsing EAE in SJL/J mice; type: in vivo, mouse
# Description: as §1, §2, §3
# [6] = tested on: MBP Ac1-11-induced EAE in MBP Ac1-11 TCR Tg mice; assay: MBP Ac1-11-induced acute EAE in MBP Ac1-11 Tg mice; type: in vivo, mouse
# Description: as §1, §2
# EAE Induction. […] All peptides were dissolved in PBS at a concentration of 2 mg/ml and emulsified with an equal volume of CFA, which consists of incomplete Freund's adjuvant supplemented with 4 mg/ml heat-killed mycobacterium tuberculosis H37Ra (Difco Laboratories, Detroit, Mich.). Mice were injected subcutaneously with 0.1 ml of the peptide emulsion. […] Mice were clinically scored as follows: 0, no paralysis; 1, tail weakness or paralysis; 2, hindlimb weakness or paralysis; 3, hindlimb paralysis and forelimb weakness; 4, hindlimb and forelimb paralysis; and 5, moribund or death. […]
# [7] = tested on: PLP p139-151-stimulated spleen and lymph node cells; assay: Ag specific ex-vivo T cell proliferation assay; type: cell-based, mouse
# Description: Ag specific ex-vivo T cell proliferation assay.
# [8] = tested on: lymph node cells and spleen cells from EAE donors; assay: Cytokine profile determination by ELISA; type: cell-based, mouse
# Protocol: Cytokine Profile Determination. Lymph node cells and spleen cells from EAE donors were stimulated in vitro (2.5×10^6 cells/ml) in 24-well plates with or without the encephalogenic peptide or with […] as positive control. Cell culture supernatants were collected at different time points for measurements of cytokine levels: 48 hours for IL-2, 72 hours for IFN-γ and TNF α, and 120 hours for IL-4 and IL-10. Cytokine levels were determined using specific ELISA kits for the corresponding cytokines according to the manufacturers protocols (PharMingen, San Diego, Calif., USA).
# [9] = tested on: STAT6; assay: Western blot for STAT6 phosphorylation in draining lymph node cells; type: in vivo, mouse; conditions: lymph nodes of SJL/J mice, 1 mg/kg and 10 mg/kg, 10 days after EAE induction; PBS: none detectable
# Protocol: All procedures were handled on ice. As a positive control, lymph node cells from naive mice were isolated and cultured for one hour with mouse recombinant IL-4 (10 ng/ml) or INF-γ (100 units/ml), for STAT6 and STAT4 expression respectively. Protein concentrations were determined by BCA protein assay (Pierce). Lysate was added to 3×SDS loading buffer (Cell Signaling Technology) with 40 mM DTT. Products were separated by electrophoresis on a 4-15% SDS-PAGE gradient gel (BioRad). Pre-stained markers (Invitrogen) were used to determine MW. Gels were blotted to PVDF membranes at 100 V in 25 mM Tris, 192 mM glycine and 20% (v/v) methanol, then blocked 1 hr at RT with Tris-buffered saline (TBS) containing 0.1% Tween-20 and 5% nonfat dry milk. After washing in TBS and 0.1% Tween 20, membranes were hybridized overnight at 4° C. with anti-phospho-STAT6 Antibody or anti-phospho-STAT4 antibody (Zymed, South San Francisco, Calif.) diluted 1:1000 in TBS, 0.1% Tween 20 and 5% BSA, the membranes were then processed by ECL Plus prebetween protocol (Amersham Life Sciences) for visualization of the bands by chemiluminescence. […]
# [10] = tested on: MHC II expression (CIITA p IV gene); conditions: through the effect on the CIITA p IV gene; cited from earlier work
# [11] = ELISA, SJL/J mice, 1 and 10 mg/kg
compound,measurement,setting,value
EYYKEYYKEYYK [ordered peptide with repeated motif EYYK],EAE in Lewis rats (mean disease score),[1],effective in preventing and treating experimental autoimmune encephalomyelitis; also recorded: effectively prevent and treat EAE in Lewis rats; also recorded: prevents the development of EAE
insulin,diabetes in NOD mice,[2],prevents disease
CC[C@H](C)C(=O)O[C@H]1C[C@@H](C)C=C2C=C[C@H](C)[C@H](CC[C@@H]3C[C@@H](O)CC(=O)O3)[C@H]21 [lovastatin],production of iNOS and proinflammatory cytokines,[3],"inhibited production of nitric oxide synthase (iNOS) and proinflammatory cytokines (TNFα, IL-1β and IL-6)"
CC(C)c1c(C(=O)Nc2ccccc2)c(-c2ccccc2)c(-c2ccc(F)cc2)n1CC[C@@H](O)C[C@@H](O)CC(=O)O [atorvastatin],EAE (mean EAE score),"[4]; daily oral 1 mg/kg or 10 mg/kg starting at the time of EAE onset, C57Bl/6 female mice",suppressed EAE induction
same,EAE (mean EAE score),"[4]; treatment after onset, C57Bl/6 mice",ameliorated EAE
same,relapsing EAE (mean EAE score),[5]; treatment at onset,effective in prevention of relapsing EAE
same,ongoing relapsing EAE (mean EAE score),[5]; treatment begun after recovery from acute EAE,reversal of ongoing relapsing EAE
same,acute EAE progression,[6],successfully prevented acute EAE progression
same,PLP p139-151-specific proliferative responses,"[7]; 3H-thymidine incorporation, SJL/J mice treated with 1 or 10 mg/kg",suppressed in a dose-related fashion
same,cell death,[7]; in vitro cultures of cells from treated mice,not observed increased cell death
same,secretion of IL-10,"[8]; ELISA, SJL/J mice",observed at the higher treatment dose
same,IL-4 production,[8]; [11],induced at both treatment doses
same,Production of IL-2,[8]; [11],"reduced, although to a much greater extent in mice treated with 10 mg/kg"
same,secretion of IFN-γ,"[8]; ELISA, SJL/J mice, both treatment doses",dramatic reduction
same,Th2 bias (proliferation and cytokines),[8]; repeated in C57BL/6 and MBP Ac1-11-specific transgenic mice,promoted an almost identical Th2 bias
same,phosphorylated STAT6,[9],phosphorylated STAT6 is seen
same,expression of MHC II,[10],could inhibit the expression of MHC II
